From US10294202B2, “Pyrrolidinones as herbicides” (FMC Corporation, priority 2013, dated 2019)

Tests used:
kochia [1] = experiment: Test A pre-/postemergence herbicide test; format: in vivo, Kochia scoparia
Outline: (§1)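 Planted in loam–sand blend; treated the same day preemergence by directed soil spray, while separately grown plants at one- to two-leaf stage got postemergence spray. Compared visually with untreated controls after approximately 10 days; 100 means complete control.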

kochia [2] = experiment: Test C pre-/postemergence herbicide test; format: in vivo, Kochia scoparia
Outline: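 Test compounds, formulated in a surfactant-containing non-phytotoxic solvent blend, are applied to seeded loam/sand soil (preemergence) and to young plants at the 1- to 4-leaf stage in peat-based medium (postemergence). Plants stay 13 to 15 days under greenhouse conditions, then are scored visually relative to controls, 0 = no effect, 100 = complete control.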

ryegrass, Italian = experiment: Test A pre-/postemergence herbicide test; format: in vivo, Lolium multiflorum
Outline: as §1

nightshade = experiment: Test C pre-/postemergence herbicide test; format: in vivo, Solanum ptycanthum; details: Preemergence
Source text: (§2) Seeds of plant species selected from blackgrass (Alopecurus myosuroides), ryegrass, Italian (Italian ryegrass, Lolium multiflorum), wheat (winter wheat, Triticum aestivum), galium (catchweed bedstraw, Galium aparine), corn (Zea mays), crabgrass, large (large crabgrass, Digitaria sanguinalis), foxtail, giant (giant foxtail, Setaria faberii), johnsongrass (Sorghum halepense), lambsquarters (Chenopodium album), morningglory (Ipomoea coccinea), nutsedge, yellow (yellow nutsedge, Cyperus esculentus), pigweed (Amaranthus retroflexus), ragweed (common ragweed, Ambrosia elatior), soybean (Glycine max), barnyardgrass (Echinochloa crus-galli), oilseed rape (Brassica napus), waterhemp (common waterhemp, Amaranthus rudis), kochia (Kochia scoparia), oat, wild (wild oat, Avena fatua), surinam grass (Brachiaria decumbens), foxtail, green (green foxtail, Setaria viridis), goosegrass (Eleusine indica), bromegrass, downy (downy bromegrass, Bromus tectorum), nightshade (eastern black nightshade, Solanum ptycanthum), cocklebur (common cocklebur, Xanthium strumarium), cupgrass, woolly (woolly cupgrass, Eriochloa villosa), bermudagrass (Cynodon dactylon), sunflower, (common oilseed sunflower, Helianthus annuus), Russian thistle (Salsola kali) and velvetleaf (Abutilon theophrasti) were planted into a blend of loam soil and sand and treated preemergence with test chemicals formulated in a non-phytotoxic solvent mixture which included a surfactant. At the same time, plants selected from these crop and weed species and also barley (winter barley, Hordeum vulgare), […]), chickweed (common chickweed, Stellaria media), deadnettle (henbit deadnettle, Lamium amplexicaule), and canarygrass (littleseed canarygrass, Phalaris minor) were planted in pots containing Redi-Earth® planting medium (Scotts Company, 14111 Scottslawn Road, Marysville, Ohio 43041) comprising spaghnum peat moss, vermiculite, wetting agent and starter nutrients and treated with postemergence applications of test chemicals formulated in the same manner. Plants ranged in height from 2 to 18 cm (1- to 4-leaf stage) for postemergence treatments. Treated plants and controls were maintained in a greenhouse for 13 to 15 days, after which time all species were compared to controls and visually evaluated. Plant response ratings, summarized in Table C, are based on a scale of 0 to 100 where 0 is no effect and 100 is complete control. A dash (-) response means no test result.

bermudagrass = experiment: Test C pre-/postemergence herbicide test; format: in vivo, Cynodon dactylon; details: Preemergence
Source text: as §2

goosegrass = experiment: Test C pre-/postemergence herbicide test; format: in vivo, Eleusine indica; details: Preemergence
Source text: as §2

cupgrass, woolly = experiment: Test C pre-/postemergence herbicide test; format: in vivo, Eriochloa villosa; details: Preemergence
Source text: as §2

bromegrass, downy = experiment: Test C pre-/postemergence herbicide test; format: in vivo, Bromus tectorum; details: Preemergence
Source text: as §2

foxtail, green = experiment: Test C pre-/postemergence herbicide test; format: in vivo, Setaria viridis; details: Preemergence
Source text: as §2

surinam grass = experiment: Test C pre-/postemergence herbicide test; format: in vivo, Brachiaria decumbens; details: Preemergence
Source text: as §2

sunflower = experiment: Test C pre-/postemergence herbicide test; format: in vivo, Helianthus annuus; details: Preemergence
Source text: as §2

cocklebur = experiment: Test C pre-/postemergence herbicide test; format: in vivo, Xanthium strumarium; details: Preemergence, scale 0 to 100 (0 no effect, 100 complete control)
Source text: as §2

[3] = Postemergence, 125 g ai/ha, 0 to 100 scale, 0 is no effect, 100 is complete control
[4] = Postemergence, 500 g ai/ha, 0 to 100 scale (0 no effect, 100 complete control)
[5] = Preemergence, 125 g ai/ha, 0 to 100 scale where 0 is no effect and 100 is complete control
[6] = preemergence, 500 g ai/ha, 0 to 100 scale, 0 is no effect and 100 is complete control
[7] = Postemergence, 31 g ai/ha, scale 0 to 100 (0 no effect, 100 complete control)
[8] = Postemergence, 62 g ai/ha, scale 0 (no effect) to 100 (complete control)
[9] = Postemergence, 125 g ai/ha, scale 0 to 100 (0 no effect, 100 complete control)
[10] = Postemergence, 250 g ai/ha, scale 0 to 100 (0 no effect, 100 complete control)
[11] = Postemergence, 125 g ai/ha, visual rating on 0 to 100 scale (0 no effect, 100 complete control), approx. 10 days
[12] = 125 g ai/ha, scale 0 to 100 (0 no effect, 100 complete control)
[13] = 31 g ai/ha, scale 0 to 100 (0 no effect, 100 complete control)
[14] = 250 g ai/ha, scale 0 to 100 (0 no effect, 100 complete control)
[15] = 125 g ai/ha, visual rating, 0 to 100 scale, 0 no effect, 100 complete control, approximately 10 days, preemergence

## O=C1NCC(c2cccc(Cl)c2)C1C(=O)Nc1cccc(F)c1F (racemic) [Compound 275]
Kochia [1]; [3]
  Plant response rating, Kochia: 50
Kochia [1]; [4]
  Plant response rating, Kochia: 80
Kochia [1]; [5]
  Plant response rating, Kochia: 60
Kochia [1]; [6]
  Plant response rating, Kochia: 80
Kochia [2]; [7]
  Plant response rating, Kochia: 70
Kochia [2]; [8]
  Plant response rating, Kochia: 85
Kochia [2]; [9]
  Plant response rating, Kochia: 85
Kochia [2]; [10]
  Plant response rating, Kochia: 85
ryegrass, Italian; [11]
  Plant response rating, Ryegrass, Italian: 30
ryegrass, Italian; [4]
  Plant response rating, Ryegrass, Italian: 50
ryegrass, Italian; [5]
  Plant response rating, Ryegrass, Italian: 30
ryegrass, Italian; [6]
  Plant response rating, Ryegrass, Italian: 60

## O=C1NCC(c2ccc(Cl)c(F)c2)C1C(=O)Nc1ccccc1F (centres unmarked) [Compound 53]
nightshade; 62 g ai/ha, scale 0 to 100
  Plant response rating, Nightshade: 0
nightshade; [12]
  Plant response rating, Nightshade: 40
bermudagrass; [13]
  Bermudagrass plant response rating: 40
bermudagrass; 62 g ai/ha, scale 0 to 100
  Plant response rating, Bermudagrass: 40
bermudagrass; [12]
  Plant response rating, Bermudagrass: 50
bermudagrass; [14]
  Plant response rating, Bermudagrass: 50
Kochia [2]; Preemergence, 62 g ai/ha, scale 0 to 100
  Plant response rating, Kochia: 0
Kochia [2]; Preemergence, 125 g ai/ha, scale 0 to 100 (0 no effect, 100 complete control)
  Plant response rating, Kochia: 0
goosegrass; [13]
  Goosegrass plant response rating: 0
goosegrass; 62 g ai/ha, scale 0 to 100
  Plant response rating, Goosegrass: 10
goosegrass; [12]
  Plant response rating, Goosegrass: 30
cupgrass, woolly; [13]
  Cupgrass, Woolly plant response rating: 35
cupgrass, woolly; 62 g ai/ha, scale 0 to 100
  Plant response rating, Cupgrass, Woolly: 65
cupgrass, woolly; [12]
  Plant response rating, Cupgrass, Woolly: 80
cupgrass, woolly; [14]
  Plant response rating, Cupgrass, Woolly: 80
bromegrass, downy; [13]
  Bromegrass, Downy plant response rating: 0
bromegrass, downy; 62 g ai/ha, scale 0 to 100
  Plant response rating, Bromegrass, Downy: 0
bromegrass, downy; [12]
  Plant response rating, Bromegrass, Downy: 0
bromegrass, downy; [14]
  Plant response rating, Bromegrass, Downy: 0
foxtail, green; [13]
  Foxtail, Green plant response rating: 30
foxtail, green; 62 g ai/ha, scale 0 to 100
  Plant response rating, Foxtail, Green: 90
foxtail, green; [12]
  Plant response rating, Foxtail, Green: 90
foxtail, green; [14]
  Plant response rating, Foxtail, Green: 90
Surinam grass; 62 g ai/ha, scale 0 to 100
  Plant response rating, Surinam Grass: 25
Surinam grass; [12]
  Plant response rating, Surinam Grass: 75
sunflower; 62 g ai/ha, scale 0 to 100
  Plant response rating Sunflower: 15
sunflower; [12]
  Plant response rating Sunflower: 20
cocklebur; 125 g ai/ha
  Plant response rating, Cocklebur: 5
cocklebur; 250 g ai/ha
  Plant response rating, Cocklebur: 5

## CN1CC(c2cccc(C(F)(F)F)c2)C(C(=O)Nc2ccccc2F)C1=O (centres unmarked) [Compound 277]
Kochia [1]; [3]
  Plant response rating, Kochia: 30
Kochia [1]; [4]
  Plant response rating, Kochia: 30
Kochia [1]; [5]
  Plant response rating, Kochia: 30
Kochia [1]; [6]
  Plant response rating, Kochia: 60
Kochia [2]; Postemergence, 16 g ai/ha, scale 0 to 100 (0 no effect, 100 complete control)
  Plant response rating, Kochia: 0
Kochia [2]; [7]
  Plant response rating, Kochia: 0
Kochia [2]; [8]
  Plant response rating, Kochia: 5
Kochia [2]; [9]
  Plant response rating, Kochia: 60
ryegrass, Italian; [11]
  Plant response rating, Ryegrass, Italian: 30
ryegrass, Italian; [4]
  Plant response rating, Ryegrass, Italian: 40
ryegrass, Italian; [5]
  Plant response rating, Ryegrass, Italian: 30
ryegrass, Italian; [6]
  Plant response rating, Ryegrass, Italian: 30

## O=C1NCC(c2cccc(C(F)(F)F)c2)C1C(=O)Nc1ccc(F)cc1F (racemic) [Compound 207]
Kochia [1]; [15]
  Plant response rating, Kochia: 20
Kochia [1]; [3]
  Plant response rating, Kochia: 0
Kochia [1]; Postemergence, 500 g ai/ha
  Kochia plant response rating (0 to 100 scale, 0 is no effect, 100 is complete control): 0
Kochia [1]; [6]
  Plant response rating, Kochia: 30
Kochia [2]; [7]
  Plant response rating, Kochia: 0
Kochia [2]; [8]
  Plant response rating, Kochia: 0
Kochia [2]; [9]
  Plant response rating, Kochia: 0
Kochia [2]; [10]
  Plant response rating, Kochia: 30
ryegrass, Italian; [15]
  Plant response rating, Ryegrass, Italian: 20
ryegrass, Italian; [3]
  Plant response rating, Ryegrass, Italian: 0
ryegrass, Italian; Postemergence, 500 g ai/ha
  Ryegrass, Italian plant response rating (0 to 100 scale, 0 is no effect, 100 is complete control): 50
ryegrass, Italian; [6]
  Plant response rating, Ryegrass, Italian: 40

## O=C1NCC(c2cccc(OC(F)F)c2)C1C(=O)Nc1ccccc1F (centres unmarked) [Compound 223]
Kochia [1]; [15]
  Plant response rating, Kochia: 30
Kochia [1]; [3]
  Plant response rating, Kochia: 50
Kochia [1]; Postemergence, 500 g ai/ha
  Kochia plant response rating (0 to 100 scale, 0 is no effect, 100 is complete control): 70
Kochia [1]; [6]
  Plant response rating, Kochia: 80
Kochia [2]; [7]
  Plant response rating, Kochia: 0
Kochia [2]; [8]
  Plant response rating, Kochia: 5
Kochia [2]; [9]
  Plant response rating, Kochia: 30
Kochia [2]; [10]
  Plant response rating, Kochia: 60
ryegrass, Italian; [15]
  Plant response rating, Ryegrass, Italian: 30
ryegrass, Italian; [3]
  Plant response rating, Ryegrass, Italian: 0
ryegrass, Italian; Postemergence, 500 g ai/ha
  Ryegrass, Italian plant response rating (0 to 100 scale, 0 is no effect, 100 is complete control): 40
ryegrass, Italian; [6]
  Plant response rating, Ryegrass, Italian: 60
